Data from patent US6730293B1, “Compositions and methods for treating inflammatory diseases of the skin” (CellGate, Inc., priority 1999, dated 2004).
Peptide text beside a SMILES is read from it. * marks the point of attachment. FITC = O=C1OC2(c3ccc(O)cc3Oc3cc(O)ccc32)c2ccc(NC(=S)*)cc21; Ahx = NCCCCCC(=O)O

Columns and labels:
Jurkat cells [1] = test: FACS cellular uptake assay of fluorescently labeled peptides and peptoids; format: cell-based, human; conditions: for additional loss of intracellular fluorescence from the one amino acid truncated analogs / loss of intracellular fluorescence compared to the parent sequence (Tat49-57): 15 min at 23° C.; for cellular uptake compared with Tat49-57: 23° C., 2% FCS
Experimental: Cellular Uptake Assay. […] The accuracy of this method for determining concentration was established by weighing selected samples and dissolving them in a known amount of PBS buffer. The concentrations determined by UV spectroscopy correlated with the amounts weighed out manually. Jurkat cells (human T cell line), murine B cells (CH27), or human PBL cells were grown in 10% fetal calf serum and DMEM and each of these were used for cellular uptake experiments. […] The microtiter plates were centrifuged and the cells were isolated, washed with cold PBS (3×250 μL), incubated with 0.05% trypsin/0.53 mM EDTA at 37° C. for 5 min, washed with cold PBS, and resuspended in PBS containing 0.1% propidium iodide. The cells were analyzed using fluorescent flow cytometry (FACScan, Becton Dickinson) and cells staining with propidium iodide were excluded from the analysis. The data presented is the mean fluorescent signal for the 5000 cells collected.
Inhibition of Cellular Uptake with Sodium Azide. The assays were performed as previously described with the exception that the cells used were preincubated for 30 min with 0.5% sodium azide in 2% FCS/PBS buffer prior to the addition of fluorescent peptides and the cells were washed with 0.5% sodium azide in PBS buffer. All of the cellular uptake assays were run in parallel in the presence and absence of sodium azide.
To determine the structural requirements for the cellular uptake of short arginine-rich peptides, a series of fluorescently-labeled truncated analogues of Tat49-57 were synthesized using standard solid-phase chemistry. See, e.g., Atherton, E.et al. SOLID-PHASE PEPTIDE […] (IRL: Oxford, Engl. 1989). A fluorescein moiety was attached via an aminohexanoic acid spacer on the amino termini. The ability of these fluorescently labeled peptides to enter Jurkat cells was then analyzed using fluorescent activated cell sorting (FACS) ( ). The peptide constructs tested were Tat49-57 (Fl-ahx-[…]): Tat49-56 (Fl-ahx-[…]), Tat49-55 (Fl-ahx-RKKRRQR), Tat50-57 (Fl-ahx-[…]), and […] (Fl-ahx-KRRQRRR). Differentiation between cell surface binding and internalization was accomplished throughout by running a parallel set of assays in the presence and absence of sodium azide. Because sodium azide inhibits energy-dependent cellular uptake but not cell surface binding, the difference in fluorescence between the two assays provided the amount of fluorescence resulting from internalization.

Jurkat cells [2] = test: Cellular uptake kinetics assay (Michaelis-Menton); format: cell-based, human; conditions: for Vmax: Jurkat cells, 30, 60, 120, 240 seconds; for Km values, fold greater than that found for Tat49-57: discussion; for rate of cell entry, fold faster than Tat47-59: from Km values
Experimental: Cellular Uptake Kinetics Assay. […] The reactions were quenched by diluting the samples into 2% FCS/PBS (5 mL). The assays were then worked up and analyzed by fluorescent flow cytometry as previously described.

skin of nude mice = test: Penetration of taxol-biotinylated D-arginine conjugates into skin of nude mice; format: in vivo; conditions: back of nude mice, 1 mM-100 μM in PBS, 30, 60, 120 minutes
Experimental: Slides were analyzed by fluorescent microscopy.

N=C(N)NCCC[C@@H](NC(=O)[C@@H](CCCNC(=N)N)NC(=O)[C@@H](CCCNC(=N)N)NC(=O)[C@@H](CCCNC(=N)N)NC(=O)[C@@H](CCCNC(=N)N)NC(=O)[C@@H](CCCNC(=N)N)NC(=O)[C@@H](CCCNC(=N)N)NC(=O)[C@@H](CCCNC(=N)N)NC(=O)[C@@H](CCCNC(=N)N)NC(=O)CCCCCNC(=S)Nc1ccc2c(c1)C(=O)OC21c2ccc(O)cc2Oc2cc(O)ccc21)C(N)=O (single isomer, unassigned) [R9]
cellular uptake of peptoids compared with d-arginine oligomers / other peptoids (Jurkat cells [1]; 4 min at 23° C.): comparable to N-btg9
relative order of uptake (Jurkat cells [1]; 4 min at 23° C.): N-hxg9 (6 methylene)>N-btg9 (4 methylene)>r9 (3 methylene)>N-arg9 (3 methylene)>N-etg9 (2 methylene)
Vmax (Jurkat cells [2]): 0.38
Km values, fold greater than that found for Tat49-57 (Jurkat cells [2]): 30 fold
Km values, fold greater than that found for Tat49-57 (Jurkat cells [2]; listed as r9): 100 fold
rate of cell entry, fold faster than Tat47-59 (Jurkat cells [2]): ~20 fold

C[C@H](NC(=O)[C@H](CCCNC(=N)N)NC(=O)[C@H](CCCNC(=N)N)NC(=O)[C@H](CCCCN)NC(=O)[C@H](CCCCN)NC(=O)[C@H](CCCNC(=N)N)NC(=O)CCCCCNC(=S)Nc1ccc2c(c1)C(=O)OC21c2ccc(O)cc2Oc2cc(O)ccc21)C(=O)N[C@@H](CCCNC(=N)N)C(=O)N[C@@H](CCCNC(=N)N)C(=O)N[C@@H](CCCNC(=N)N)C(N)=O [A-54] ({FITC-Ahx}-RKKRRARRR-NH2)
loss of cellular uptake on alanine substitution of Tat49-57 (Jurkat cells [1]; 12 min at 23° C.): modest decrease

CC[C@H](C)[C@H](NC(=O)[C@H](CCCCN)NC(=O)[C@@H](NC(=O)[C@H](CCC(N)=O)NC(=O)[C@H](CCCNC(=N)N)NC(=O)CCCCCNC(=S)Nc1ccc2c(c1)C(=O)OC21c2ccc(O)cc2Oc2cc(O)ccc21)[C@@H](C)CC)C(=O)N[C@@H](Cc1c[nH]c2ccccc12)C(=O)N[C@@H](Cc1ccccc1)C(=O)N[C@@H](CCC(N)=O)C(=O)N[C@@H](CC(N)=O)C(=O)N[C@@H](CCCNC(=N)N)C(=O)N[C@@H](CCCNC(=N)N)C(=O)N[C@@H](CCSC)C(=O)N[C@@H](CCCCN)C(=O)N[C@@H](Cc1c[nH]c2ccccc12)C(=O)N[C@@H](CCCCN)C(=O)N[C@@H](CCCCN)C(N)=O [Antennapedia43-58, reference compound]
Vmax (Jurkat cells [2]): 0.41
rate of cell entry, fold faster than Tat47-59 (Jurkat cells [2]): approximately 2 fold

CC(=O)O[C@H]1C(=O)[C@@]2(C)[C@H]([C@H](OC(=O)c3ccccc3)[C@]3(O)C[C@H](OC(=O)[C@H](OC(=O)NCCCC[C@H](NC(=O)[C@@H](CCCNC(=N)N)NC(=O)[C@@H](CCCNC(=N)N)NC(=O)[C@@H](CCCNC(=N)N)NC(=O)[C@@H](CCCNC(=N)N)NC(=O)[C@@H](CCCNC(=N)N)NC(=O)CCCCCNC(=O)CCCC[C@@H]4SC[C@@H]5NC(=O)N[C@@H]54)C(N)=O)[C@@H](NC(=O)c4ccccc4)c4ccccc4)C(C)=C1C3(C)C)[C@]1(OC(C)=O)CO[C@@H]1C[C@@H]2O [B-aca-r5-K-taxol]
penetration into skin (fluorescent streptavidin staining) (skin of nude mice): very little uptake

CC(=O)O[C@H]1C(=O)[C@@]2(C)[C@H]([C@H](OC(=O)c3ccccc3)[C@]3(O)C[C@H](OC(=O)[C@H](OC(=O)NCCCC[C@H](NC(=O)[C@@H](CCCNC(=N)N)NC(=O)[C@@H](CCCNC(=N)N)NC(=O)[C@@H](CCCNC(=N)N)NC(=O)[C@@H](CCCNC(=N)N)NC(=O)[C@@H](CCCNC(=N)N)NC(=O)[C@@H](CCCNC(=N)N)NC(=O)[C@@H](CCCNC(=N)N)NC(=O)CCCCCNC(=O)CCCC[C@@H]4SC[C@@H]5NC(=O)N[C@@H]54)C(N)=O)[C@@H](NC(=O)c4ccccc4)c4ccccc4)C(C)=C1C3(C)C)[C@]1(OC(C)=O)CO[C@@H]1C[C@@H]2O [B-aca-r7-K-taxol]
penetration into skin (fluorescent streptavidin staining) (skin of nude mice): effectively entered into and across the epidermis and into the dermis

CC(=O)O[C@H]1C(=O)[C@@]2(C)[C@H]([C@H](OC(=O)c3ccccc3)[C@]3(O)C[C@H](OC(=O)[C@H](OC(=O)NCCCC[C@H](NC(=O)[C@@H](CCCNC(=N)N)NC(=O)[C@@H](CCCNC(=N)N)NC(=O)[C@@H](CCCNC(=N)N)NC(=O)[C@@H](CCCNC(=N)N)NC(=O)[C@@H](CCCNC(=N)N)NC(=O)[C@@H](CCCNC(=N)N)NC(=O)[C@@H](CCCNC(=N)N)NC(=O)[C@@H](CCCNC(=N)N)NC(=O)[C@@H](CCCNC(=N)N)NC(=O)CCCCCNC(=O)CCCC[C@@H]4SC[C@@H]5NC(=O)N[C@@H]54)C(N)=O)[C@@H](NC(=O)c4ccccc4)c4ccccc4)C(C)=C1C3(C)C)[C@]1(OC(C)=O)CO[C@@H]1C[C@@H]2O [B-aca-r9-K-taxol]
penetration into skin (fluorescent streptavidin staining) (skin of nude mice): effectively entered into and across the epidermis and into the dermis

N=C(N)NCCC[C@H](NC(=O)[C@H](CCC(N)=O)NC(=O)[C@H](CCCNC(=N)N)NC(=O)[C@H](CCCNC(=N)N)NC(=O)[C@H](CCCCN)NC(=O)[C@H](CCCCN)NC(=O)[C@H](CCCNC(=N)N)NC(=O)CCCCCNC(=S)Nc1ccc2c(c1)C(=O)OC21c2ccc(O)cc2Oc2cc(O)ccc21)C(N)=O [Tat49-55, Fl-ahx-RKKRRQR] ({FITC-Ahx}-RKKRRQR-NH2)
additional loss of intracellular fluorescence from the one amino acid truncated analogs (Jurkat cells [1]): 60%

N=C(N)NCCC[C@H](NC(=O)[C@H](CCCNC(=N)N)NC(=O)[C@H](CCC(N)=O)NC(=O)[C@H](CCCNC(=N)N)NC(=O)[C@H](CCCNC(=N)N)NC(=O)[C@H](CCCCN)NC(=O)[C@H](CCCCN)NC(=O)[C@H](CCCNC(=N)N)NC(=O)CCCCCNC(=S)Nc1ccc2c(c1)C(=O)OC21c2ccc(O)cc2Oc2cc(O)ccc21)C(N)=O [Tat49-56] ({FITC-Ahx}-RKKRRQRR-NH2)
loss of intracellular fluorescence compared to the parent sequence (Tat49-57) (Jurkat cells [1]): 80%

N=C(N)NCCC[C@H](NC(=O)[C@H](CCCNC(=N)N)NC(=O)[C@H](CCCNC(=N)N)NC(=O)[C@H](CCC(N)=O)NC(=O)[C@H](CCCNC(=N)N)NC(=O)[C@H](CCCNC(=N)N)NC(=O)[C@H](CCCCN)NC(=O)[C@H](CCCCN)NC(=O)[C@H](CCCNC(=N)N)NC(=O)CCCCCNC(=S)Nc1ccc2c(c1)C(=O)OC21c2ccc(O)cc2Oc2cc(O)ccc21)C(N)=O [Tat49-57, reference compound]
cellular uptake compared with Tat49-57 (Jurkat cells [1]): between that of R6 and R7
Vmax (Jurkat cells [2]): 0.38

N=C(N)NCCC[C@H](NC(=O)[C@H](CCCNC(=N)N)NC(=O)[C@H](CCCNC(=N)N)NC(=O)[C@H](CCC(N)=O)NC(=O)[C@H](CCCNC(=N)N)NC(=O)[C@H](CCCNC(=N)N)NC(=O)[C@H](CCCCN)NC(=O)[C@H](CCCCN)NC(=O)CCCCCNC(=S)Nc1ccc2c(c1)C(=O)OC21c2ccc(O)cc2Oc2cc(O)ccc21)C(N)=O [Tat50-57] ({FITC-Ahx}-KKRRQRRR-NH2)
loss of intracellular fluorescence compared to the parent sequence (Tat49-57) (Jurkat cells [1]): 80%

N=C(N)NCCC[C@H](NC(=O)[C@H](CCCNC(=N)N)NC(=O)[C@H](CCCNC(=N)N)NC(=O)[C@H](CCC(N)=O)NC(=O)[C@H](CCCNC(=N)N)NC(=O)[C@H](CCCNC(=N)N)NC(=O)[C@H](CCCCN)NC(=O)CCCCCNC(=S)Nc1ccc2c(c1)C(=O)OC21c2ccc(O)cc2Oc2cc(O)ccc21)C(N)=O [Tat51-57, Fl-ahx-KRRQRRR] ({FITC-Ahx}-KRRQRRR-NH2)
additional loss of intracellular fluorescence from the one amino acid truncated analogs (Jurkat cells [1]): did not further diminish the amount of internalization

N=C(N)NCCC[C@H](NC(=O)[C@H](CCCCN)NC(=O)[C@H](CCCCN)NC(=O)[C@H](CCCNC(=N)N)NC(=O)[C@H](CCCNC(=N)N)NC(=O)[C@H](CCC(N)=O)NC(=O)[C@H](CCCNC(=N)N)NC(=O)[C@H](CCCNC(=N)N)NC(=O)[C@H](CCCNC(=N)N)NC(=O)CCCCCNC(=S)Nc1ccc2c(c1)C(=O)OC21c2ccc(O)cc2Oc2cc(O)ccc21)C(N)=O [Tat57-49]
cellular uptake compared with Tat49-57 (Jurkat cells [1]): more effective at entering Jurkat cells then Tat49-57

N=C(N)NCCC[C@@H](NC(=O)[C@@H](CCCNC(=N)N)NC(=O)[C@@H](CCCNC(=N)N)NC(=O)[C@@H](CCC(N)=O)NC(=O)[C@@H](CCCNC(=N)N)NC(=O)[C@@H](CCCNC(=N)N)NC(=O)[C@@H](CCCCN)NC(=O)[C@@H](CCCCN)NC(=O)[C@@H](CCCNC(=N)N)NC(=O)CCCCCNC(=S)Nc1ccc2c(c1)C(=O)OC21c2ccc(O)cc2Oc2cc(O)ccc21)C(N)=O [d-Tat49-57, Fl-ahx-rkkrrqrrr]
cellular uptake compared with Tat49-57 (Jurkat cells [1]): more effective at entering Jurkat cells then Tat49-57

N=C(N)NCCC[C@@H](NC(=O)[C@@H](CCCCN)NC(=O)[C@@H](CCCCN)NC(=O)[C@@H](CCCNC(=N)N)NC(=O)[C@@H](CCCNC(=N)N)NC(=O)[C@@H](CCC(N)=O)NC(=O)[C@@H](CCCNC(=N)N)NC(=O)[C@@H](CCCNC(=N)N)NC(=O)[C@@H](CCCNC(=N)N)NC(=O)CCCCCNC(=S)Nc1ccc2c(c1)C(=O)OC21c2ccc(O)cc2Oc2cc(O)ccc21)C(N)=O [d-Tat57-49, Fl-ahx-rrrqrrkkr]
cellular uptake compared with Tat49-57 (Jurkat cells [1]): more effective at entering Jurkat cells then Tat49-57
